Measured values from paper PMC5548886 (Cancer Medicine, 2017).

Tests used:
Format in all cases: in vivo, human
[1] = test system: tumor metabolic activity (SUV); assay: Metabolic tumor response by 18[F]-FDG-PET
Procedure: (§1) Pharmacodynamic markers were examined using peripheral blood samples, tumor and nevi biopsies (when available) and tumor imaging. BRAF mutation status was determined by Sanger sequencing. Pharmacodynamic markers analyzed, in available tumor/nevus samples obtained before treatment or archival tissue and during treatment on cycle 1, day 8 or day 15, including cytoplasmic p‐MEK, p‐ERK, BIM, c‐KIT, p‐AKT473, pS6 and PTEN, and nuclear p‐ERK, Ki‐67, PARP, cyclin D1, MITF, p27, and p53. Biomarker expression was determined by calculating the percentage of change in the H‐score (14) between on‐treatment and fresh/archival pretreatment specimens. Blood levels of VEGFR‐2 and were assessed before and at multiple time points while on treatment using enzyme‐linked immunosorbent assay (ELISA). […] Changes in standard uptake value (SUV) were determined by a blinded, independent central imaging review panel. Complete metabolic response (CMR) was complete resolution of tumor FDG‐PET uptake so SUV is the same as background. Partial metabolic response (PMR) decrease in sum of the tumor SUV of ≥25% from the baseline scan. Progressive metabolic disease (PMD) was defined as an increase in tumor SUV of ≥25% from the baseline scan, or the appearance of new FDG‐PET uptake in metastatic lesions. Stable metabolic disease (SMD) was defined as a change in tumor SUV between the PMR and PMD criteria.

[2] = test system: locally advanced or metastatic melanoma; assay: Antitumor response by RECIST 1.0
Procedure: Medical history and demographics were collected at screening. The safety of study medication was evaluated on the basis of rate, type, severity graded in accordance with NCI CTCAE version 3.0. Safety assessments consisted of collecting all AEs, serious adverse events (SAEs) with their severity and relationship with study drug, and pregnancies. They included the regular monitoring of hematology, blood chemistry and urine performed at the study center/central laboratory and regular assessments of vital signs, physical condition, body weight, performance status, and cardiac data (i.e. electrocardiogram (ECG)/echocardiogram (ECHO)). Abnormalities in clinical laboratory tests that were considered clinically significant by the Investigator were recorded on the AE CRF. Dose‐limiting toxicities (DLTs) were defined for various organ systems and other clinically relevant adverse effects (Table S1). The DLT window was the first cycle while AEs were captured for the entire course of treatment. Evaluation of tumor response was conducted at Baseline, and at the end of every 8 weeks of treatment. Response was assessed using the Response Evaluation Criteria in Solid Tumors (RECIST) 1.0. […] All patients discontinuing from the study for progressive disease were to have their disease progression documented by radiologic evaluation.

[3] = test system: soluble VEGFR-2 (sVEGFR-2); assay: Blood level by ELISA; conditions: all dose levels, over time
Procedure: as §1

[4] = 33 patients with BRAF-WT melanomas
[5] = BRAF mutation, All patients, 33 evaluable
[6] = BRAF mutation, DL 5, 8 evaluable
[7] = BRAF mutation, DL 6, 10 evaluable
[8] = BRAF mutation, DLs 1 to 4, 6 evaluable
[9] = BRAF mutation, DLs 7 and 7.1, 9 evaluable
[10] = BRAF unspecified/unknown, All patients, 5 evaluable
[11] = BRAF unspecified/unknown, DL 5, 0 evaluable
[12] = BRAF unspecified/unknown, DL 6, 2 evaluable
[13] = BRAF unspecified/unknown, DLs 1 to 4, 1 evaluable
[14] = BRAF unspecified/unknown, DLs 7 and 7.1, 2 evaluable
[15] = BRAF wild-type, All patients, 28 evaluable
[16] = BRAF wild-type, DL 5, 5 evaluable
[17] = BRAF wild-type, DL 6, 8 evaluable
[18] = BRAF wild-type, DLs 1 to 4, 8 evaluable
[19] = BRAF wild-type, DLs 7 and 7.1, 7 evaluable
[20] = Total, All patients, 66 evaluable
[21] = Total, DLs 1 to 4, 15 evaluable
[22] = Total, DLs 7 and 7.1, 18 evaluable

SMILES: Cn1c(Nc2ccc(C(F)(F)F)cc2)nc2cc(Oc3ccnc(-c4ncc(C(F)(F)F)[nH]4)c3)ccc21 [RAF265]
- PMR, patients ([1]; BRAF WT disease, C1D15, 1 of 29): 3.4%
- PMR, patients ([1]; BRAF mutant tumors, C1D15, 8 of 33): 24.2%
- PMR, patients ([1]; BRAF-WT disease, C1D28, 3 of 28): 10.7%
- PMR, patients ([1]; BRAF-mutant tumors, C1D28, 8 of 28): 28.6%
- partial metabolic response (PMR), patients ([1]; C1D15, 10 of 65): 15.4%
- progressive metabolic disease (PMD), patients ([1]; C1D15, 65 patients): 13.8%
- stable metabolic disease (SMD), patients ([1]; C1D15, 65 patients): 70.8%
- partial metabolic response (PMR), patients ([1]; C1D28, 58 evaluable patients, all dose levels): 20.7%
- progressive metabolic disease (PMD), patients ([1]; C1D28, 58 patients): 17.2%
- stable metabolic disease (SMD), patients ([1]; C1D28, 58 patients): 62.1%
- patients with RECIST-defined responses who also had partial metabolic response ([1]; in vivo): Five of eight
- number of CR [2, 4]: one
- number of PR [2, 4]: two
- number of PR ([2]; 39 patients with BRAF V600E mutation): Four
- number of complete responses (CR) ([2]; 66 evaluable patients): one
- number of partial responses (PR) ([2]; 66 evaluable patients): seven
- objective response rate (ORR), RECIST ([2]; 66 evaluable patients, all dose levels): 12.1%
- Best response CR or PR ([2]; All patients, 66 evaluable): 8 (12.1) n (%)
- Best response CR, PR or SD ([2]; All patients, 66 evaluable): 35 (53) n (%)
- Complete response (CR), best overall response [2, 5]: 0 n (%)
- Partial response (PR), best overall response [2, 5]: 4 (12) n (%)
- Progressive disease (PD), best overall response [2, 5]: 14 (42) n (%)
- Stable disease (SD), best overall response [2, 5]: 15 (46) n (%)
- Complete response (CR), best overall response [2, 6]: 0 n (%)
- Partial response (PR), best overall response [2, 6]: 1 (12.5) n (%)
- Progressive disease (PD), best overall response [2, 6]: 4 (50) n (%)
- Stable disease (SD), best overall response [2, 6]: 3 (37.5) n (%)
- Complete response (CR), best overall response [2, 7]: 0 n (%)
- Partial response (PR), best overall response [2, 7]: 1 (10) n (%)
- Progressive disease (PD), best overall response [2, 7]: 2 (20) n (%)
- Stable disease (SD), best overall response [2, 7]: 7 (70) n (%)
- Complete response (CR), best overall response [2, 8]: 0 n (%)
- Partial response (PR), best overall response [2, 8]: 2 (33.3) n (%)
- Progressive disease (PD), best overall response [2, 8]: 4 (66.7) n (%)
- Stable disease (SD), best overall response [2, 8]: 0 n (%)
- Complete response (CR), best overall response [2, 9]: 0 n (%)
- Partial response (PR), best overall response [2, 9]: 0 n (%)
- Progressive disease (PD), best overall response [2, 9]: 4 (44) n (%)
- Stable disease (SD), best overall response [2, 9]: 5 (56) n (%)
- Complete response (CR), best overall response [2, 10]: 0 n (%)
- Partial response (PR), best overall response [2, 10]: 1 (20) n (%)
- Progressive disease (PD), best overall response [2, 10]: 3 (60) n (%)
- Stable disease (SD), best overall response [2, 10]: 1 (20) n (%)
- Complete response (CR), best overall response [2, 11]: 0 n (%)
- Partial response (PR), best overall response [2, 11]: 0 n (%)
- Progressive disease (PD), best overall response [2, 11]: 0 n (%)
- Stable disease (SD), best overall response [2, 11]: 0 n (%)
- Complete response (CR), best overall response [2, 12]: 0 n (%)
- Partial response (PR), best overall response [2, 12]: 0 n (%)
- Progressive disease (PD), best overall response [2, 12]: 2 (100) n (%)
- Stable disease (SD), best overall response [2, 12]: 0 n (%)
- Complete response (CR), best overall response [2, 13]: 0 n (%)
- Partial response (PR), best overall response [2, 13]: 0 n (%)
- Progressive disease (PD), best overall response [2, 13]: 0 n (%)
- Stable disease (SD), best overall response [2, 13]: 1 (100) n (%)
- Complete response (CR), best overall response [2, 14]: 0 n (%)
- Partial response (PR), best overall response [2, 14]: 1 (50) n (%)
- Progressive disease (PD), best overall response [2, 14]: 1 (50) n (%)
- Stable disease (SD), best overall response [2, 14]: 0 n (%)
- Complete response (CR), best overall response [2, 15]: 1 (3.6) n (%)
- Progressive disease (PD), best overall response [2, 15]: 14 (50) n (%)
- Stable disease (SD), best overall response [2, 15]: 11 (39.3) n (%)
- Complete response (CR), best overall response [2, 16]: 0 n (%)
- Partial response (PR), best overall response [2, 16]: 0 n (%)
- Progressive disease (PD), best overall response [2, 16]: 2 (40) n (%)
- Stable disease (SD), best overall response [2, 16]: 3 (60) n (%)
- Complete response (CR), best overall response [2, 17]: 0 n (%)
- Partial response (PR), best overall response [2, 17]: 1 (12.5) n (%)
- Progressive disease (PD), best overall response [2, 17]: 5 (62.5) n (%)
- Stable disease (SD), best overall response [2, 17]: 2 (25) n (%)
- Complete response (CR), best overall response [2, 18]: 0 n (%)
- Partial response (PR), best overall response [2, 18]: 1 (12.5) n (%)
- Progressive disease (PD), best overall response [2, 18]: 6 (75) n (%)
- Stable disease (SD), best overall response [2, 18]: 1 (12.5) n (%)
- Complete response (CR), best overall response [2, 19]: 1 (14.3) n (%)
- Partial response (PR), best overall response [2, 19]: 0 n (%)
- Progressive disease (PD), best overall response [2, 19]: 1 (14.3) n (%)
- Stable disease (SD), best overall response [2, 19]: 5 (71.4) n (%)
- Best response CR or PR ([2]; DL 5, 13 evaluable): 1 (7.7) n (%)
- Best response CR, PR or SD ([2]; DL 5, 13 evaluable): 7 (53.8) n (%)
- Best response CR or PR ([2]; DL 6, 20 evaluable): 2 (10) n (%)
- Best response CR, PR or SD ([2]; DL 6, 20 evaluable): 11 (55) n (%)
- Best response CR or PR ([2]; DLs 1 to 4, 15 evaluable): 3 (20) n (%)
- Best response CR, PR or SD ([2]; DLs 1 to 4, 15 evaluable): 5 (33.3) n (%)
- Best response CR or PR ([2]; DLs 7 and 7.1, 18 evaluable): 2 (11.1) n (%)
- Best response CR, PR or SD ([2]; DLs 7 and 7.1, 18 evaluable): 12 (66.7) n (%)
- Complete response (CR), best overall response [2, 20]: 1 (1.5) n (%)
- Partial response (PR), best overall response [2, 20]: 7 (10.6) n (%)
- Progressive disease (PD), best overall response [2, 20]: 31 (47) n (%)
- Stable disease (SD), best overall response [2, 20]: 27 (40.9) n (%)
- Complete response (CR), best overall response ([2]; Total, DL 5, 13 evaluable): 0 n (%)
- Partial response (PR), best overall response ([2]; Total, DL 5, 13 evaluable): 1 (7.7) n (%)
- Progressive disease (PD), best overall response ([2]; Total, DL 5, 13 evaluable): 6 (46.1) n (%)
- Stable disease (SD), best overall response ([2]; Total, DL 5, 13 evaluable): 6 (46.1) n (%)
- Complete response (CR), best overall response ([2]; Total, DL 6, 20 evaluable): 0 n (%)
- Partial response (PR), best overall response ([2]; Total, DL 6, 20 evaluable): 2 (10) n (%)
- Progressive disease (PD), best overall response ([2]; Total, DL 6, 20 evaluable): 9 (45) n (%)
- Stable disease (SD), best overall response ([2]; Total, DL 6, 20 evaluable): 9 (45) n (%)
- Complete response (CR), best overall response [2, 21]: 0 n (%)
- Partial response (PR), best overall response [2, 21]: 3 (20) n (%)
- Progressive disease (PD), best overall response [2, 21]: 10 (66.7) n (%)
- Stable disease (SD), best overall response [2, 21]: 2 (13.3) n (%)
- Complete response (CR), best overall response [2, 22]: 1 (5.6) n (%)
- Partial response (PR), best overall response [2, 22]: 1 (5.6) n (%)
- Progressive disease (PD), best overall response [2, 22]: 6 (33.3) n (%)
- Stable disease (SD), best overall response [2, 22]: 10 (55.6) n (%)
- median duration of response ([2]; responders, range 1.4–51.7 months): 18.3 months
- number of PR ([2]; unknown BRAF mutation status): one
- sVEGFR-2 levels [3]: significant decrease
